Assay [1] addresses syntaxin 1A / Kv2.1 peptides containing the C1aB region (Homo sapiens, UniProt Q16623). Kind of assay: Peptide spot array far-Western assay of syntaxin binding to Kv2.1 C1a peptides. On the set-up: species or system rat. An excerpt: Peptide spot array and far-Western assay. Peptide spot arrays (15 mers) spanning the proximal C-terminus residues 451-540 of rat Kv2.1 were constructed using the Spots-synthesis method. Standard 9-fluorenylmethoxy carbonyl (Fmoc) chemistry was used to synthesize the peptides and spot them onto nitrocellulose membranes prederivatized with a polyethylene glycerol spacer (Intavis). Fmoc protected and activated amino acids were spotted in quadruplicates on 20-30 arrays on 75 by 25 mm membranes using an Intavis MultiPep robot. The nitrocellulose membrane containing the immobilized peptides were rehydrated in Tris-buffered 0.1% Tween 20 (TBST) for 10 min, and then blocked for 1 h at room temperature (RT) with gentle shaking in TBST containing 5% (w/v) nonfat dry milk and then incubated with enriched STX1A protein containing the indicated concentrations of cpd5 for 1 h at RT with gentle shaking. Next, the membrane was incubated in primary antibody for syntaxin 1A (Millipore, catalog #AB5820-50UL, RRID:AB_2216165) for 2 h at RT with gentle shaking, followed by washing with TBST. Finally, the membrane was incubated in secondary antibody (goat anti-rabbit DyLight 800, catalog #355571, Thermo Fisher Scientific) for 45 min, washed for 3 times 5 min in TBST, and visualized by infrared fluorescence (Li-Cor). Similar procedures were followed for the alanine scan study with 9-mers.

The subject of assay [2] is L5B corticocollicular neurons. The assay can be described thus: Slice electrophysiology, intrinsic properties of L5B corticocollicular neurons. It counts as cell-based, mouse. The following applies: 10 min incubation in 10 μM cpd5. How it is done: Stereotaxic injections for electrophysiology. Male or female ICR mice P21-30 (Jackson Laboratory) were anesthetized with 3% isoflurane (1.5% maintenance) and placed on the stereotaxic frame (Kopf). Core body temperature was maintained at ˜37° C. with a heating pad and eyes were protected with ophthalmic ointment. Lidocaine (1%) was injected under the scalp and an incision was made into the skin at the midline to expose the skull. […] A volume of ˜0.12 μl fluorospheres was pressure injected (25 psi, 10 ms duration) from capillary pipettes (Drummond Scientific) with a Picospritzer (Parker-Hannifin). After injection, the pipette was held in the brain for 2 min before slowly withdrawing. The scalp of the mouse was closed with cyanoacrylate adhesive. Mice were injected with the non-steroidal anti-inflammatory drug carprofen at 5 mg/kg (Henry Schein Animal Health) for 24 hours prior to and 48 hours after surgery. Mice were monitored for signs of postoperative stress and pain.
Slice electrophysiology. Slice electrophysiology experiments were performed in mice at least 2 days after fluorospheres injections. Following anesthesia with isoflurane, mice were immediately decapitated. Brains were rapidly removed and coronal slices (300 μm) containing the auditory cortex were prepared in a cutting solution at 1° C. using a Vibratome (VT1200 S; Leica). For evoked EPSC recordings, the cutting solution, pH 7.4, ˜300 mOsm, contained the following (in mM): 2.5 KCl, 1.25 NaH2PO4, 25 NaHCO3, 0.5 CaCl2, 7 MgCl2, 7 Glucose, 205 sucrose, 1.3 ascorbic acid, and 3 sodium pyruvate (bubbled with 95% O2/5% CO2). For evaluation of corticocollicular neuron electrical properties, the cutting solution, pH ˜7.4, contained the following (in mM): 135 NMDG, 1 KCl, 1.2 KH2PO4, 1.5 MgCl2, 1.5 CaCl2, 20 NaHCO3, 10 D-Glucose. The slices were then transferred and incubated at 34° C. for 30 min (bubbled with 95% O2/5% CO2) prior to recording. The incubating and recording solution contained the following (in mM): 125 NaCl, 2.5 KCl, 1.25 NaH2PO4, 25 NaHCO3, 2 CaCl2, 1 MgCl2, 10 D-Glucose, 1.3 ascorbic acid, and 3 sodium pyruvate (bubbled with 95% O2/5% CO2). Slices were stored at room temperature until the time of recording. The flow rate of the ACSF was ˜1.5 ml/min, and its temperature was maintained at 34° C. using an in-line heating system (Warner). Both slice electrophysiology experiments were carried out using MultiClamp-700B amplifier equipped with Digidata-1440A A/D converter and Clampex (Molecular Devices). Data were sampled at 10 kHz and Bessel filtered at 4 kHz. Pipette capacitance was compensated and series resistance for recordings was lower than 15 MΩ and measured throughout the experiments. Recordings were excluded from further analysis if the series resistance changed by more than 15% compared to the baseline period.
All data for intrinsic properties were acquired and analyzed within the Ephus software package. Series resistance was determined in voltage-clamp mode (command potential set at −70 mV) by giving a −5 mV voltage step. […] The difference between baseline and steady-state hyperpolarized current (ΔI) was used to calculate Rinput using the following formula: Rinput=−5 mV/ΔI−Rseries. The average resting membrane potential (Vm) was calculated by holding the neuron in voltage-follower mode (current clamp, at I=0) ˜2 minutes after breaking in and averaging the membrane potential over the next 30 sec. Subthreshold and suprathreshold membrane responses in current clamp were elicited by injecting −200 to +400 pA in 50 pA increments (baseline Vm was maintained at −70 mV, by injecting the required current, if necessary). Sag was measured during the −200 pA current injection, using the formula, SAG=(Vmin−Vsteady-state)/Vsteady-state. The first resulting action potential (AP) at rheobase was analyzed for AP width. AP width was calculated as the full-width at the half-maximum amplitude of the AP. […]

Structures are written as SMILES.

Chain of syntaxin 1A / Kv2.1 peptides containing the C1aB region (Q16623 whole entry, species assumed, the tested form may be a part): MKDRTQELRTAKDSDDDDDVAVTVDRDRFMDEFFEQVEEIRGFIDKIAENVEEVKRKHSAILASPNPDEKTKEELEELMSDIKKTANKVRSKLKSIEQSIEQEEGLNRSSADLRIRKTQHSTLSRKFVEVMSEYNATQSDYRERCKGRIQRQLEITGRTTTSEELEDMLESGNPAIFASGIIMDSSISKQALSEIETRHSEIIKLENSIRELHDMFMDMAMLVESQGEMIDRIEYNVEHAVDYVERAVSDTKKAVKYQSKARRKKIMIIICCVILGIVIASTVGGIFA

For the molecule `COc1ccc(CNC(=O)Nc2cccc(-c3nc4ccccc4s3)c2)cc1OC` [cpd5, 3-[3-(1,3-benzothiazol-2-yl)phenyl]-1-[(3,4-dimethoxyphenyl)methyl]urea], the “reduction of Kv2.1 peptides binding to syntaxin at peak values” in assay [1] (Cpd5 100 μM) is “up to 60%”. Further, the 50% inhibitory concentration (IC50) (commonly the concentration that gives 50% inhibition) in assay [1] (percent inhibition compared to 0.1% DMSO, variable slope fit, read-out: IC50 for inhibition of syntaxin binding to peptides 22-28 (full C1aB domain) of the peptide array) came out at 5.5 µM. In assay [2], the action potential threshold entry is listed as “no significant effect”, the action potential width entry was “no significant effect”, the firing rate result is “no significant effect” and the input resistance entry was “lack of significant effect”. In assay [2], the resting membrane potential result is recorded as “lack of significant effect” and the “sag ratio (V2/V1)” value was “lack of significant effect”.

(Values after patent US12226400B2, “Neuroprotective disruption of Kv2.1/syntaxin interaction by small molecules” (UNIVERSITY OF PITTSBURGH-OF THE COMMONWEALTH SYSTEM OF …, priority 2018, dated 2025).)
